Source: US20040209897A1 (Pharmacia Corporation, priority 2002, published 2004)
Counter-ions that a name gives are not always drawn.

Tests used:
[1] = tested on: streptococcal cell wall (SCW)-induced arthritis; experiment: Chronic streptococcal cell wall (SCW)-induced arthritis in Lewis rats, paw volume; type: in vivo; conditions: female Lewis rats, daily dosing from day 10, paw volume measured 11 days after start of administration, A at 200, 60, 20 mpk/day, B at 240, 120, 60 mpk/day, FIG. 3
Description: The use of Lewis rats with chronic streptococcal cell wall (SCW)-induced arthritis as models for testing potentially therapeutic compounds has been described by Richards, P. J., et al., Rhermatology (Oxford), 40(9):978-987 (2001), and Melay, L. M. et al, Bioorg. Med. Chem., 9(2):537-554 (2001), among others. In the present test, female Lewis rats were divided into eight groups. One group served as the “normal” control and received no arthritis inducement. Chronic streptococcal cell wall (SCW)-induced arthritis was induced in the remaining seven groups. One of the severn groups in which arthritis was induced served as a “vehicle” control and received dosage only of vehicle at the same intervals as those rats receiving the test compounds. Three additional groups of rats received the vehicle plus 2-{2-[(E)-2-phenylethenyl]pyridin-4-yl}-1,5,6,7-tetrahydro-4H-pyrrolo[3,2-c]pyridin-4-one (Compound “A”) in daily dosages. All rats were started on the test at day 0. […]
To measure the effectiveness of the compounds for the treatment of SCW-induced arthritis, rat paw volume was measured at eleven (11) days from the initiation of administration of the test compounds. […]

SCW-induced arthritis = experiment: Streptococcus cell wall (SCW)-induced arthritis, paw volume / paw swelling; type: in vivo; conditions: rats, FIG. 4, A at 20, 60, 200 mpk/day, B at 60, 120, 240 mpk/day
[2] = biological target: Recombinant MAPKAPK2 (MK-2) (Homo sapiens, UniProt P49137); experiment: Determination of MK-2 IC50 (HSP-peptide phosphorylation, anion exchange resin capture assay); type: biochemical; conditions: for IC50: MAPKAP2 Avg. IC50
Chain of Recombinant MAPKAPK2 (MK-2) (P49137 whole entry, species assumed): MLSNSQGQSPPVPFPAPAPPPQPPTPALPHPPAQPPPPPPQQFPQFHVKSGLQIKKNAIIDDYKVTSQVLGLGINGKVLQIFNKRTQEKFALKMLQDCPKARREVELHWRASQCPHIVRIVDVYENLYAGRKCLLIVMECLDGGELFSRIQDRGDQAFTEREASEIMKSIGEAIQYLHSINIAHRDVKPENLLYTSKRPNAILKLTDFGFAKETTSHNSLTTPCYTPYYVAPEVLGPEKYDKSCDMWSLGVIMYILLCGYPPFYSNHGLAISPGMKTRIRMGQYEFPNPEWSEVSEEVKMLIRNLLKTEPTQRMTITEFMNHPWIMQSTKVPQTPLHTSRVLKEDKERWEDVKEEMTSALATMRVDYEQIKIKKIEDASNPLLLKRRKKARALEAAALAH
Description: The phosphorylation of HSP-peptide ([sequence]) by MAPKAPK2 was measured using an anion exchange resin capture assay method. […] The reaction was terminated and [γ^33P]ATP was removed from solution by the addition of 150 μl of AG 1×8 ion exchange resin in 900 mM sodium formate pH 3.0. A 50 μl aliquot of head volume was removed from the quenched reaction mixture and added to a 96-well plate, 150 μl of Microscint-40 (Packard) was added and the amount of phosphorylated-peptide was determined.
Compounds are evaluated as potential inhibitors of the MK2 kinase by measuring their effects on MK2 phosphorylation of the peptide substrate. Compounds may be screened initially at two concentrations prior to determination of IC50 values. Screening results are expressed as percent inhibition at the concentrations of compound tested. For IC50 value determinations, compounds are tested at six concentrations in ten-fold serial dilutions with each concentration tested in triplicate. Results are expressed as IC50 values in micromolar. The assay is performed at a final concentration of 2% DMSO.

IC50 [2] | SMILES | further results
134 nM | O=C1NCCc2[nH]c(-c3ccnc(/C=C/c4cc5ccccc5o4)c3)cc21 [Example 494] | 
49.3 nM | CCc1cccc(-c2cc(-c3cc4c([nH]3)CCNC4=O)ccn2)c1 [Example 272, trifluoroacetate] | 
207 nM | NCc1cccc(-c2cc(-c3cc4c([nH]3)CCNC4=O)ccn2)c1 [Example 551, 2-{2-[3-(aminomethyl)phenyl]pyridin-4-yl}-1,5,6,7-tetrahydro-4H-pyrrolo[3,2-c]pyridin-4-one trifluoroacetate] | 
1020 nM | O=C1NCCc2[nH]c(-c3ccnc(/C=C/c4ccc(-c5ccccc5)s4)c3)cc21 [Example 683, trifluoroacetate] | 
365 nM | O=C1NCCc2[nH]c(-c3ccnc(/C=C\C=C\c4ccccc4)c3)cc21 [Example 610] | 
442 nM | O=C1NCCc2[nH]c(-c3ccnc(/C=C\c4cc5ccccc5s4)c3)cc21 [Example 623, trifluoroacetate] | 
1810 nM | COCCN(C)c1ccccc1/C=C/c1cc(-c2cc3c([nH]2)CCNC3=O)ccn1 [Example 716, trifluoroacetate] | 
33.6 nM | O=C1NCCc2[nH]c(-c3ccnc(/C=C/c4cc(F)ccc4F)c3)cc21 [Example 196, trifluoroacetate] | 
447 nM | O=C1NCCc2[nH]c(-c3ccnc(-c4cncc5ccccc45)c3)cc21 [Example 627, trifluoroacetate] | 
7540 nM | C[C@@H]1CN(c2ccccc2/C=C/c2cc(-c3cc4c([nH]3)CCNC4=O)ccn2)C[C@H](C)O1 [Example 766, 2-[2-((E)-2-{2-[(2R,6S)-2,6-dimethylmorpholin-4-yl]phenyl}vinyl)pyridin-4-yl]-1,5,6,7-tetrahydro-4H-pyrrolo[3,2-c]pyridin-4-one trifluoroacetate] | 
18.3 nM | O=C1NCCc2[nH]c(-c3ccnc(/C=C/c4cccnc4)c3)cc21 [Example 78, trifluoroacetate] | 
1150 nM | O=C1NCCc2[nH]c(-c3ccnc(/C=C/c4ccccc4C4CCCCC4)c3)cc21 [Example 694, trifluoroacetate] | 
3330 nM | O=C1NCCc2[nH]c(-c3ccnc(/C=C\c4cccnc4)c3)cc21 [Example 747, trifluoroacetate] | 
136 nM | O=C1NCCc2[nH]c(-c3ccnc(/C=C(/F)c4ccccc4)c3)cc21 [Example 497, trifluoroacetate] | 
348 nM | O=C1NCCc2[nH]c(-c3ccnc(/C=C/c4csc(-c5ccccc5)n4)c3)cc21 [Example 602, trifluoroacetate] | 
29.6 nM | COc1ccc(/C=C/c2cc(-c3cc4c([nH]3)CCNC4=O)ccn2)cc1 [Example 170, trifluoroacetate] | 
1080 nM | O=C1NCCc2[nH]c(-c3ccnc(/C=C\c4ccc(F)c(F)c4)c3)cc21 [Example 687, trifluoroacetate] | 
791 nM | O=C1NCCc2[nH]c(-c3ccnc(/C=C/c4ccccc4N4CCNCC4)c3)cc21 [Example 667, trifluoroacetate] | 
279 nM | Cc1cccc(/C=C/c2cc(-c3cc4c([nH]3)CCNC4=O)ccn2)c1C [Example 577, trifluoroacetate] | 
99.3 nM | Nc1cccc(-c2cc(-c3cc4c([nH]3)CCNC4=O)ccn2)c1 [Example 431, trifluoroacetate] | 

Continued, compound first:

SMILES | IC50 [2] | further results
O=C(O)C(F)(F)F.O=C1NCCc2[nH]c(-c3ccnc(-c4ccccc4F)c3)cc21 [B, 2-[2-(2-fluorophenyl)pyridin-4-yl]-1,5,6,7-tetrahydro-4H-pyrrolo[3,2-c]pyridin-4-one trifluoroacetate] |  | average paw volume (increase versus vehicle controls) [1]: significantly lower increases in paw volume; percent inhibition in paw swelling as a function of the dosage rate (SCW-induced arthritis): typical dose-response behavior
COC(=O)Nc1ccc(-c2cc(-c3cc4c([nH]3)CCNC4=O)ccn2)cc1 [Example 203, trifluoroacetate] | 35.1 nM | 
CN(C)C/C=C/C(=O)Nc1cccc(-c2cc(-c3cc4c([nH]3)CCNC4=O)ccn2)c1 [Example 338, trifluoroacetate] | 64.8 nM | 
CN(C)C/C=C/C(=O)NCc1cccc(-c2cc(-c3cc4c([nH]3)CCNC4=O)ccn2)c1 [Example 465] | 118 nM | 
O=C(NCC(F)(F)F)c1ccc(-c2cc(-c3cc4c([nH]3)CCNC4=O)ccn2)cc1 [Example 121, trifluoroacetate] | 23.9 nM | 
Cc1ccc(-c2cc(-c3cc4c([nH]3)CCNC4=O)ccn2)cc1F [Example 150, trifluoroacetate] | 27.6 nM | 
O=C1NCCc2[nH]c(-c3ccnc(-c4cc(F)cc(F)c4)c3)cc21 [Example 80, trifluoroacetate] | 18.5 nM | 
Cc1cc(C)c(/C=C\c2cc(-c3cc4c([nH]3)CCNC4=O)ccn2)cc1C [Example 604, trifluoroacetate] | 354 nM | 
CC(C)Cc1cncc(-c2cc(-c3cc4c([nH]3)CCNC4=O)ccn2)c1 [Example 243, trifluoroacetate] | 41.8 nM | 
O=C1NCCc2[nH]c(-c3cc(-c4ccc(Oc5ccccc5)cc4)ncc3F)cc21 [Example 509, 2-[5-fluoro-2-(4-phenoxyphenyl)pyridin-4-yl]-1,5,6,7-tetrahydro-4H-pyrrolo[3,2-c]pyridin-4-one trifluoroacetate] | 149 nM | 
O=C(CCCl)Nc1cccc(-c2cc(-c3cc4c([nH]3)CCNC4=O)ccn2)c1 [Example 336, trifluoroacetate] | 64.5 nM | 
O=C1NCCc2[nH]c(-c3ccnc(-c4ccc([N+](=O)[O-])cc4)c3)cc21 [Example 587] | 316 nM | 
CC1CNC(=O)c2cc(-c3ccnc(-c4ccccc4F)c3)[nH]c21 (stereo not drawn) [Example 505] | 145 nM | 
CC(=NO)c1cccc(-c2cc(-c3cc4c([nH]3)CCNC4=O)ccn2)c1 [Example 134, bis(trifluoroacetate)] | 25.7 nM | 
N#Cc1cccc(-c2cc(-c3cc4c([nH]3)CCNC4=O)ccn2)c1 [Example 160, trifluoroacetate] | 28.5 nM | 
CC(C)c1cccc(-c2cc(-c3cc4c([nH]3)CCNC4=O)ccn2)c1 [Example 119, trifluoroacetate] | 23.7 nM | 
O=C1NCCc2[nH]c(-c3ccnc(/C=C/c4c(Cl)cccc4N4CCOCC4)c3)cc21 [Example 715, trifluoroacetate] | 1800 nM | 

SMILES | IC50 [2] | further results
C=CC(=O)N(CCNC(=O)OC(C)(C)C)c1ccc(-c2cc(-c3cc4c([nH]3)CCNC4=O)ccn2)cn1 [Example 732, trifluoroacetate] | 2330 nM | 
C/C=C/C(=O)Nc1cccc(-c2cc(-c3cc4c([nH]3)CCNC4=O)ccn2)c1 [Example 430, trifluoroacetate] | 99.3 nM | 
CC(=O)c1cccc(-c2cc(-c3cc4c([nH]3)CCNC4=O)c(F)cn2)c1 [Example 159, trifluoroacetate] | 28.3 nM | 
O=C(O)c1cccc(-c2cccc(-c3cc(-c4cc5c([nH]4)CCNC5=O)ccn3)c2)c1 [Example 333, trifluoroacetate] | 64.2 nM | 
O=C(CBr)Nc1cccc(-c2cc(-c3cc4c([nH]3)CCNC4=O)ccn2)c1 [Example 271, trifluoroacetate] |  | kind of MK-2 inhibition (irreversible) [2]: irreversible inhibitors
C=C(C)C(=O)Nc1cccc(-c2cc(-c3cc4c([nH]3)CCNC4=O)ccn2)c1 [Example 287, trifluoroacetate] | 52.5 nM | 
NCCCc1ccc(-c2cc(-c3cc4c([nH]3)CCNC4=O)ccn2)cn1 [Example 485] | 132 nM | 
O=C1NCCc2[nH]c(-c3ccnc(-c4ccc5cc(O)ccc5c4)c3)cc21 [Example 17] | 9.2 nM | 
O=C1NCCc2[nH]c(-c3ccnc(-c4ccc(CCc5ccc(F)cc5)nc4)c3)cc21 [Example 345, trifluoroacetate] | 66.1 nM | 
O=C1NC(c2ccccc2)Cc2[nH]c(-c3ccnc(-c4cccc(F)c4)c3)cc21 (stereo not drawn) [Example 767, 2-[2-(3-fluorophenyl)pyridin-4-yl]-6-phenyl-1,5,6,7-tetrahydro-4H-pyrrolo[3,2-c]pyridin-4-one trifluoroacetate] | 7750 nM | 
O=C1NCCc2[nH]c(-c3ccnc(-c4ccc(C(=O)C5CC5)cc4)c3)cc21 [Example 167, trifluoroacetate] | 29.5 nM | 
CN(C)C(=O)CCCOc1ccc(-c2cc(-c3cc4c([nH]3)CCNC4=O)ccn2)cc1 [Example 326, trifluoroacetate] | 62.2 nM | 
O=C1NC(C2CC2)Cc2[nH]c(-c3ccnc(-c4cccc(NC(=O)C5CCCC5)c4)c3)cc21 (stereo not drawn) [Example 634, trifluoroacetate] | 509 nM | 
O=C1NCCc2[nH]c(-c3ccnc(-c4cccc(CNCc5cccc(Cl)c5)c4)c3)cc21 [Example 408, bis(trifluoroacetate)] | 89.9 nM | 
COc1ccc2cc(-c3cc(-c4cc5c([nH]4)CCNC5=O)ccn3)ccc2c1 [Example 273, trifluoroacetate] | 49.7 nM | 
Cn1c(-c2ccnc(-c3cnc4ccccc4c3)c2)cc2c1CCNC2=O [Example 750, 1-methyl-2-(2-quinolin-3-ylpyridin-4-yl)-1,5,6,7-tetrahydro-4H-pyrrolo[3,2-c]pyridin-4-one] | 4130 nM | 
